From patent US12251363B2, “Compositions to enhance a non-surgical medical treatment” (Anti-Plasmin Technologies, LLC, priority 2017, dated 2025)

How the values were obtained:
[1] = HPLC study to detect any binding interaction of tranexamic acid with hyaluronic acid polymer (ERACLEA product); format: physicochemical
Procedure: First a skin care product from ERACLEA® Skin Care containing 1% (w/v) hyaluronic acid polymer and preservatives was tested. […] The analysis was carried out with fresh sample preparations being mixed and immediately injected into the HPLC system for analysis as well as sample preparations that were mixed and allowed to stand for a 20 minute time period prior to injection.
(§1) Similar to the above-mentioned study, the JUVEDERM® analysis was carried out with fresh sample preparations being immediately injected for analysis as well as sample preparations that were allowed to stand for a 20 minute time period prior to injection.
The sample preparation was prepared as follows: 10 mg of hyaluronic acid polymer (Source: ERACLEA®, pure hydration) was weighed in 2.5 mL of auto sampler vial and diluted to 1000 μt volume by adding an aqueous solution of 60:40 ratio, by volume, distilled water/acetonitrile and used as a standard stock solution.
The HPLC was conducted with a flow rate of 1 mL/min, a sample concentration of 10 mg/mL, and an injection volume of 10 μt, a wave length of 205 nm and a solvent system of 40:60 ratio, by volume, acetonitrile/distilled water.

[2] = tested on: patients undergoing dermal filler procedures; assay: Bruising study: tranexamic acid solutions applied before and after dermal filler procedures, 48-hour observation; format: in vivo, human
[3] = HPLC study of interaction of tranexamic acid with hyaluronic acid dermal filler (JUVEDERM); format: physicochemical; details: freshly prepared 3% (w/v) tranexamic acid in filler; injected immediately vs after standing 20 min
Procedure: as §1
The sample preparation was prepared as follows: 13 mg of filler (Source: JUVEDERM® Vollere XC) was weighed in a 2.5 mL vial and diluted to 1000 μt volume by adding an aqueous solution of 60:40 ratio, by volume, distilled water/acetonitrile.

[4] = oral administration; cited from earlier work
[5] = tested on: patients receiving hyaluronic acid dermal filler; assay: Non-surgical clinical use: tranexamic acid solution before and after injection of hyaluronic acid dermal filler, 318 patients; format: in vivo, human; details: 3% (w/v) tranexamic acid solution before and after filler injection
From the text: Three patients of the 318 reported instances of bruising or swelling.

[6] = 20% (w/v) tranexamic acid solution vs without
[7] = 20% (w/v) tranexamic acid solution, when bruising occurred

In the case of `NC[C@H]1CC[C@H](C(=O)O)CC1` [tranexamic acid], the “interaction between tranexamic acid and hyaluronic acid polymer when mixed in solution” value ([1]; 3% (w/v) tranexamic acid in solution containing 1% (w/v) hyaluronic acid polymer, mixed several weeks prior to HPLC) is reported as “no interaction”, the “interaction between tranexamic acid and hyaluronic acid polymer” value ([1]; freshly prepared 3% (w/v) tranexamic acid in hyaluronic acid polymer, injected immediately vs after standing 20 min) is reported as “no interaction” and the “interaction between tranexamic acid and the hyaluronic acid in the ERACLEA product” value ([1]; left in contact for several weeks (0.5% and 3% (w/v) tranexamic acid)) is reported as “no interaction”. The “mild to no bruising combined, patients” value ([2]; 20% (w/v) tranexamic acid solution) was 82%, the “more patients experienced no bruising vs filler labeling” value ([2]; 20% (w/v) tranexamic acid solution vs labeling of JUVEDERM VOLLURE XC and VOLBELLA XC) was “about 28%” and the “improvement in bruising incidence” value ([2]; 20% (w/v) tranexamic acid solution vs other series, 48-hour observation) was “three-fold”. For the same molecule, the “improvement in mild bruising” value [2, 6] was 80%, the “improvement in mild to no bruising combined” value [2, 6] was 58% and the “improvement in severe bruising” value [2, 6] was 100%. For the same molecule, the “patients experienced no bruising” value ([2]; 20% (w/v) tranexamic acid solution, 48-hour observation) was “Approximately 45%”, the patients bruised severely [2, 7] was “no patients” and the “patients only bruised mildly” value [2, 7] was 67%. The “patients experienced no bruising” value ([2]; other series of patients (3%, 5%, 10% (w/v), and 3% plus home use for two days), 48-hour observation) was “about 15%”, the “interaction between tranexamic acid and JUVEDERM filler” value [3] was “no interaction” and the “fraction of the TA ingested that does not enter the blood” value [4] was “about half”. The “patients reported instances of bruising or swelling (count)” value [5] was “Three” and the “patients reported instances of bruising and swelling” value ([5]; 318 patients, about 1 year) was “Less than 1%”.
